Assays:
CCK-receptor = target: T1, CCK-receptor (Rattus norvegicus, UniProt P30551); experiment: CCK-receptor binding assay in pancreas (125I-CCK-8, pancreatic plasma membranes); parameters: species or system Male Wistar rats; details: 30 pM 125I-CCK-8, rat pancreatic plasma membranes, 37° C., 30 minutes; inhibition of specific binding
T1 construct: Pancreatic plasma membranes were prepared by the method of Chang et al; from tissue; host or cells: pancreas of male Wistar rats (pancreatic plasma membranes)
T1 sequence (P30551 1-444): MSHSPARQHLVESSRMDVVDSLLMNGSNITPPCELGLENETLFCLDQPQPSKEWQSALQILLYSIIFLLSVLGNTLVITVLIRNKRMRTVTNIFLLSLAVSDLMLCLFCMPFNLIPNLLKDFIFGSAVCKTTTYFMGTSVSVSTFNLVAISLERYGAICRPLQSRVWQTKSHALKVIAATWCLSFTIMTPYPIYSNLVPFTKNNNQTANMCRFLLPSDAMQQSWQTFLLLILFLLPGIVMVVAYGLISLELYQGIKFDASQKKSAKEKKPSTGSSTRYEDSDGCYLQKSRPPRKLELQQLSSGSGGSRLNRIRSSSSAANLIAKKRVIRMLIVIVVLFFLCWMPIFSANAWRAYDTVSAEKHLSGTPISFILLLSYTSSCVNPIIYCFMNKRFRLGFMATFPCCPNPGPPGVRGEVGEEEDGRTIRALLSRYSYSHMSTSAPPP
Description: CCK-receptor binding assay in pancreas
Pancreatic plasma membranes were prepared by the method of Chang et al. (Molecular Pharmacology, Vol. 30, p. 212-, 1986). Male Wistar rats were sacrificed by decapitation and the pancreas was removed. The pancreas was dissected free from adipose tissue and minced in 50 volumes ice-cold Tris-HCl buffer (50 mM, pH 7.4 at 37° C.). Homogenization was performed using ultra disperser and the homogenate was centrifuged at 50,000×g for 10 minutes. The pellet was washed by resuspension in the same volume of fresh Tris-HCl buffer and again centrifuged as above. The final pellet was suspended in assay buffer (50 mM Tris-HCl, 5 mM MgCl2, 5 mM dithiothreitol, 2 mg/ml of bovine serum albumin, and 0.14 mg/ml of bacitracin), and used as receptor sources for binding assay.
Thirty pM ^125 I-CCK-8 (final concentration), test drug or vehicle (for total binding) or 10^-6 M CCK-8 (for nonspecific binding) were added to the assay medium containing pancreatic plasma membranes (0.5 mg of original wet weight/ml). After incubation at 37° C. for 30 minutes, the assay medium was filtrated under reduced pressure through glass fiber filter and washed four times with 4 ml of ice-cold Tris-HCl buffer. The radioactivity trapped on the filter was counted by γ-counter (Packard 5650).
Specific binding was defined as the radioactivity bound after subtracting nonspecific binding determined in the presense of 10^-6 M unlabeled CCK-8. IC50 value was calculated from inhibition percentage of specific binding by each test drug.

amylase secretion = experiment: Effect on amylase secretion in rats (stimulated by CCK-8); assay type: in vivo, Male Wistar rats; details: Rattus norvegicus; intraduodenal, 30 minutes before subcutaneous CCK-8 (10 μg/kg); urethane-anesthetized rats
Description: Effect on amylase secretion in rats
Male Wistar rats were anesthetized with urethane (1.5 g/kg, S.C.), and tracheal cannula was inserted. Biliopancreatic juice was collected from the cannula which had been inserted into the common bile duct. Thirty minutes after intraduodenal administration of test drug, amylase secretion was stimulated by subcutaneous injection of CCK-8 (10 μg/kg). Amylase concentration in the sample collected every 30 minutes during experiment was assayed using Amylase B Test (Wako), and ED50 value was calculated.

isolated gallbladder = experiment: CCK-antagonism in isolated gallbladder (contraction induced by CCK-8); assay type: cell-based, male Hartley guinea-pig; details: Cavia porcellus; guinea-pig gallbladder strips, Krebs solution 37° C.; contraction induced by 10^-8 M CCK-8
Description: CCK-antagonism in isolated gallbladder
Gallbladder strips isolated from male Hartley guinea-pig were prepared and suspended in Magnus bath filled with Krebs solution (1 g of initial tension). The solution kept at 37° C. was aerated with a mixture of 95% O2 and 5% CO2. The isometric contraction of strips was recorded through a force-displacement transducer. Antagonism by test drugs against gallbladder contraction induced by 10^-8 M CCK-8 was examined and IC50 value was calculated.

Row | Compound | IC50 (CCK-receptor) | ED50 (amylase secretion) | IC50 (isolated gallbladder)
1 | CCCCCN(CCCOC)C(=O)C(CCC(=O)O)CS(=O)(=O)c1ccc2ccccc2c1 (single isomer, unassigned) [compound 23] | 3300 nM |  | 
2 | C=CCOCCN(CCOCC=C)C(=O)C(CCC(=O)OC)CS(=O)(=O)c1ccc2ccccc2c1 (stereo not shown) [compound 37] | 3100 nM |  | 
3 | O=C(O)CCC(CS(=O)(=O)c1ccc2ccccc2c1)C(=O)N(CCC1CCCCC1)CCC1CCCCC1 (stereo not shown) [Compound No. 39, 4-[N,N-Bis(2-cyclohexylethyl)carbamoyl]-5-(2-naphthylsulfonyl)pentanoic acid] | 1800 nM |  | 
4 | CCCCCN(CC(=O)OCC)C(=O)C(CCC(=O)OC)CS(=O)(=O)c1ccc2ccccc2c1 (racemic) [compound 7, methyl 4-(N-ethoxycarbonylmethyl-N-pentylcarbamoyl)-5-(2-naphthylsulfonyl)pentanoate] | 1700 nM |  | 
5 | CCCCCN(CC(=O)O)C(=O)C(CCC(=O)OC)CS(=O)(=O)c1ccc2ccccc2c1 (stereo not shown) [Compound No. 15, N-[2-(2-Methoxycarbonylethyl)-3-(2-naphthylsulfonyl)propionyl]-N-pentylglycine] | 7300 nM |  | 
6 | CCCCCN(CC(=O)O)C(=O)C(CCC(=O)O)CS(=O)(=O)c1ccc2ccccc2c1 (stereo not shown) [compound 33] | 3400 nM |  | 
7 | CCCCCN(CC(=O)N(C(C)C)C(C)C)C(=O)C(CCC(=O)O)CS(=O)(=O)c1ccc2ccccc2c1 (stereo not shown) [compound 29] | 2300 nM |  | 
8 | CCCCCN(CCOC(C)=O)C(=O)C(CCC(=O)O)CS(=O)(=O)c1ccc2ccccc2c1 (stereo not shown) [Compound No. 50, 4-[N-(2-Acetoxyethyl)-N-pentylcarbamoyl]-5-(2-naphtylsulfonyl)pentanoic acid] | 200 nM |  | 
9 | COC(=O)CCC(CS(=O)(=O)c1ccc2ccccc2c1)C(=O)N(CCC1CCCCC1)CCC1CCCCC1 (stereo not shown) [Compound No. 34, Methyl 4-[N,N-bis(2-cyclohexylethyl)carbamoyl]-5-(2-naphthylsulfonyl)pentanoate] | 1700 nM |  | 
10 | CCCCCN(CCCOC)C(=O)C(CCC(=O)OC)CS(=O)(=O)c1ccc2ccccc2c1 (racemic) [Compound No. 3, methyl 4-[N-(3-methoxypropyl)-N-pentylcarbamoyl]-5-(2-naphthylsulfonyl)pentanoate] | 2400 nM |  | 
11 | CCCCCN(CC(=O)N(C)C)C(=O)C(CCC(=O)O)CS(=O)(=O)c1ccc2ccccc2c1 (stereo not shown) [compound 27] | 2200 nM |  | 
12 | CCOC(=O)CN(CC(=O)OCC)C(=O)C(CCC(=O)OCc1ccccc1)CS(=O)(=O)c1ccc2ccccc2c1 (stereo not shown) [compound 36, benzyl 4-[N,N-bis(ethoxycarbonylmethyl)carbamoyl]-5-(2-naphthylsulfonyl)pentanoate] | 6500 nM |  | 
13 | CCCCCN(CC(=O)OCC)C(=O)C(CCC(=O)OCc1ccccc1)CS(=O)(=O)c1ccc2ccccc2c1 (racemic) [compound 6, benzyl 4-(N-ethoxycarbonylmethyl-N-pentylcarbamoyl)-5-(2-naphthylsulfonyl)pentanoate] | 1700 nM |  | 
14 | CC(=O)OCCN(CCOC(C)=O)C(=O)C(CCC(=O)OCc1ccccc1)CS(=O)(=O)c1ccc2ccccc2c1 (stereo not shown) [compound 35] | 4000 nM |  | 
15 | CCOC(=O)CN(CC(=O)OCC)C(=O)C(CCC(=O)O)CS(=O)(=O)c1ccc2ccccc2c1 (stereo not shown) [compound 40, 4-[N,N-Bis(ethoxycarbonylmethyl)carbamoyl]-5-(2-naphthylsulfonyl)pentanoic acid] | 2100 nM |  | 
16 | CCCCCN(CC(=O)NC(C)C)C(=O)C(CCC(=O)O)CS(=O)(=O)c1ccc2ccccc2c1 (stereo not shown) [compound 30] | 4100 nM |  | 
17 | CCCCCN(CC(=O)NC1CCCCC1)C(=O)C(CCC(=O)O)CS(=O)(=O)c1ccc2ccccc2c1 (stereo not shown) [compound 31] | 2000 nM |  | 

Second part, led by results:

Row | IC50 (CCK-receptor) | Compound | ED50 (amylase secretion) | IC50 (isolated gallbladder)
18 | 1400 nM | C=CCOCCN(CCOCC=C)C(=O)C(CCC(=O)O)CS(=O)(=O)c1ccc2ccccc2c1 (stereo not shown) [compound 41] |  | 
19 | 210 nM | CCCCCN(CC(=O)N(CC)CC)C(=O)C(CCC(=O)O)CS(=O)(=O)c1ccc2ccccc2c1 (stereo not shown) [compound 28] |  | 
20 | 290 nM | CCCCCN(CCCCC)C(=O)C(CC(=O)O)CS(=O)(=O)c1ccc2ccccc2c1 (stereo not shown) [compound 32] |  | 
21 | 610 nM | CCCCCN(CC(=O)N1CCOCC1)C(=O)C(CCC(=O)O)CS(=O)(=O)c1ccc2ccccc2c1 (stereo not shown) [compound 54] |  | 
22 | 900 nM | CCCCCN(CC(=O)N1CCCC1)C(=O)C(CCC(=O)O)CS(=O)(=O)c1ccc2ccccc2c1 (stereo not shown) [compound 55] |  | 
23 | 49 nM | CCCCCN(CC(=O)OC(C)(C)C)C(=O)C(CCC(=O)O)CS(=O)(=O)c1ccc2ccccc2c1 (stereo not shown) [compound 25] | 8 mg/kg | 
24 | 25 nM | CCCCCN(CC(=O)OC(C)(C)C)C(=O)C(CCC(=O)O)CS(=O)(=O)c1ccc2ccccc2c1 (single isomer, unassigned) [compound 26] |  | 
25 | 340 nM | CCCCCN(CCCOC)C(=O)C(CCC(=O)O)CS(=O)(=O)c1ccc2ccccc2c1 (stereo not shown) [Compound No. 18, 4-[N-(3-Methoxypropyl)-N-pentylcarbamoyl]-5-(2-naphthylsulfonyl)pentanoic acid] | 15.7 mg/kg | 6800 nM
26 | 110 nM | CCOC(=O)CN(CCCOC)C(=O)C(CCC(=O)OCc1ccccc1)CS(=O)(=O)c1ccc2ccccc2c1 (stereo not shown) [compound 38] |  | 
27 | 400 nM | CCCCCN(CCC(=O)OCC)C(=O)C(CCC(=O)O)CS(=O)(=O)c1ccc2ccccc2c1 (stereo not shown) [compound 21] |  | 2900 nM
28 | 190 nM | CCCCCN(CCOC(=O)C(C)(C)C)C(=O)C(CCC(=O)O)CS(=O)(=O)c1ccc2ccccc2c1 (stereo not shown) [compound 52] |  | 
29 | 220 nM | CCCCCN(CCCN1CCCC1=O)C(=O)C(CCC(=O)O)CS(=O)(=O)c1ccc2ccccc2c1 (stereo not shown) [compound 53] |  | 
30 | 400 nM | CCCCCN(CC(=O)N1CCCCC1)C(=O)C(CCC(=O)O)CS(=O)(=O)c1ccc2ccccc2c1 (stereo not shown) [Compound No. 51, 5-(2-Naphthylsulfonyl)-4-(N-pentyl-N-piperidinocarbonylmethylcarbamoyl)pentanoic acid] |  | 
31 | 44 nM | CCCCCN(CC(=O)OC(C)C)C(=O)C(CCC(=O)O)CS(=O)(=O)c1ccc2ccccc2c1 (stereo not shown) [compound 24] |  | 
32 | 29 nM | CCCCCN(CCCCC)C(=O)C(CCC(=O)O)CS(=O)(=O)c1ccc2ccccc2c1 (stereo not shown) [compound 20] | 9.6 mg/kg | 2600 nM
33 | 320 nM | CCCCCN(CC(=O)OCC)C(=O)C(CCC(=O)O)CS(=O)(=O)c1ccc2ccccc2c1 (stereo not shown) [Compound No. 19, 4-(N-Ethoxycarbonylmethyl-N-pentylcarbamoyl)-5-(2-naphthylsulfonyl)pentanoic acid] | 33.3 mg/kg | 2100 nM
34 | 120 nM | CCCCCN(CCCOC)C(=O)C(CCC(=O)O)CS(=O)(=O)c1ccc2ccccc2c1 (single isomer, unassigned; (-)) [compound 22, (-)-4-[N-(3-methoxypropyl)-N-pentylcarbamoyl]-5-(2-naphthylsulfonyl)pentanoic acid] |  | 2800 nM
